Assay [1] in a line: Antiinflammatory activity in human THP1 cells assessed as inhibition of LPS-stimulated TNFalpha production. The settings on record: THP-1.
Assay [2] is described as follows: Ratio of IC50 for human THP1 cells assessed as inhibition of LPS-stimulated TNFalpha production to IC50 for MK2 (unknown origin). Further details: species or system THP-1.
Assay [3] can be described thus: Antiinflammatory activity in human THP1 cells assessed as inhibition of LPS-stimulated TNFalpha production at […] uM. In kind it is functional. The settings on record: THP-1.
In assay [4] the target is MAP kinase-activated protein kinase 2 (Homo sapiens) (UniProt P49137). Description: Inhibition of MK2 (unknown origin) at 50 uM by scintillation proximity assay.
Assay [5] in a line: Antiinflammatory activity in human THP1 cells assessed as inhibition of LPS-stimulated TNFalpha production at 50 uM. In kind it is functional. The settings on record: THP-1.

The values below come from ChEMBL document CHEMBL3627620, “Design, synthesis, and biological evaluation of aminopyrazine derivatives as inhibitors of mitogen-activated protein kinase-activated protein kinase 2 (MK-2)” (Bioorg Med Chem Lett, 2015).

What is called IC50 is the concentration that gives 50% inhibition. The inhibition is the relative decrease from the control value, in per cent.

Sequence of MAP kinase-activated protein kinase 2 (Homo sapiens) (P49137 whole entry, looked up): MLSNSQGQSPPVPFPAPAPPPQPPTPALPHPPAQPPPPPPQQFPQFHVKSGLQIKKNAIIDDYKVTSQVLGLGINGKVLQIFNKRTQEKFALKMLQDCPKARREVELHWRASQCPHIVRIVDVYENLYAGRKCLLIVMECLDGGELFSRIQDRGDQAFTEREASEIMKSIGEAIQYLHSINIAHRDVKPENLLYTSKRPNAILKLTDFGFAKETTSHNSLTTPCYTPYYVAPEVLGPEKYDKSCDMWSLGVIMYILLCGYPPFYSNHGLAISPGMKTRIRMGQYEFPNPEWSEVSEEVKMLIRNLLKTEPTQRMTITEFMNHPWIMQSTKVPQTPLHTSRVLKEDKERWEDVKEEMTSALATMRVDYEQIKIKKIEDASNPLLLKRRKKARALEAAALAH

Take `CCOC(=O)/N=C(\NCc1nc(C2CC2)cnc1N)Nc1ccc2[nH]c(=O)oc2c1`: the half-maximal inhibitory concentration (IC50) in assay [1] turned out to be 13 µM.

With `Nc1ncc(Cl)nc1CNC(=S)Nc1ccccc1`, the “Ratio IC50” value in assay [2] is listed as 4. In addition, the IC50 in assay [1] came out at 7.9 µM. Consider `CC(C)(C)OC(=O)Nc1ccc(N/C(=N/C#N)NCc2nc(C3CC3)cnc2N)cc1`, for which the IC50 in assay [1] stood at 10.2 µM.

Take `CCCc1cnc(N)c(CN/C(=N\C#N)Nc2ccc3[nH]c(=O)oc3c2)n1`: the IC50 in assay [1] is 42 µM. Regarding `Nc1ncc(C2CC2)nc1CNC(=O)Nc1ccc2[nH]c(=O)oc2c1`, in assay [1], the IC50 is > 12.5 µM. Also, in assay [3], the inhibition at 12.5 µM is 45%. With `Nc1ncc(Cl)nc1CNc1nc2ccccc2s1`, in assay [4], the inhibition is 36%. `CO/N=C(\NCc1nc(Cl)cnc1N)Nc1ccc(NC(=O)OC(C)(C)C)cc1`: the inhibition at 50 µM in assay [5] stood at 40%. Further, in assay [1], the IC50 is > 50 µM. As to `Cc1ccc(C(=O)/N=C(\NCc2nc(C3CC3)cnc2N)Nc2ccc3[nH]c(=O)oc3c2)cc1`, in assay [1], the IC50 was 3.9 µM. As for `CCCc1cnc(N)c(CNC(=O)Nc2ccc3[nH]c(=O)oc3c2)n1`, in assay [1], the IC50 is > 12.5 µM. For the same molecule, the inhibition at 12.5 µM in assay [3] was determined as 34%. In assay [4], `Nc1ncc(Cl)nc1-c1nc(N2CCc3ccccc32)no1` displayed an inhibition of 20%.

As for `Nc1ncc(C2CC2)nc1CN/C(=N\C(=O)c1ccc(Cl)cc1)Nc1ccc2[nH]c(=O)oc2c1`, the half-maximal inhibitory concentration (IC50) in assay [1] turned out to be 8.8 µM.
